Assay results from patent US9763991B2, “Composition for the treatment of neurobehavioral disorders” (Cannabis Science International Holding B.V., priority 2013, dated 2017).

Tests used:
[1] = tested on: C57BL6 mice; experiment: Sleep monitoring after oral dosing (gavage) of Cannabinol in olive oil; format: in vivo, mouse; details: all 5 doses (0.01-0.5 mg/Kg) by oral gavage in olive oil, single administration at 3 consecutive days, vs pure olive oil
Procedure: (§1) The experiment is designed to test a range of concentrations around the equivalent previously tested in humans for single-dose kinetics. Animal experiments were performed following the directive 2010/63/EU on the protection of animals used for scientific purposes.
(§2) 6 groups of 5-6 male C57BL6 of approximately 28 g body weight (range 27-30 g) with the use of one cage for 3 mice: Group 0: Pure Olive Oil, Group 1: CBN at 0.01 mg/Kg body weight, Group 2: CBN at 0.05 mg/Kg body weight, Group 3: CBN at 0.1 mg/Kg body weight, Group 4: CBN at 0.25 mg/Kg body weight and Group 5: CBN at 0.50 mg/Kg body weight
Solutions (named CBN 0, CBN 1, CBN 2, CBN 3, CBN 4, CBN 5, Pure Olive Oil) having different cannabinol concentrations dissolved in olive oil were prepared in sterile conditions, under a laminar flood hood. Pure olive oil was used as a negative control.
The volume that can be administered to the animal should not exceed 10 ml/kg. For a mouse of 20 g the maximum volume corresponds to 0.2 ml. For this procedure a volume of 0.1 ml will be used (half of the maximum volume). 1 ml of each stock solution (cannabinol, CBN 1-5 and pure olive oil, POO) was dispensed into Falcon vials. Prior to the administration, the weight of each mouse was recorded and the appropriate amount of cannabinol solution was determined. […]

[2] = tested on: C57BL6 mice; experiment: Safety data, body weight and organ weight after oral dosing (gavage) of Cannabinol; format: in vivo, mouse
Procedure: as §1, §2
The volume that can be administered to the animal should not exceed 10 ml/kg. For a mouse of 20 g the maximum volume corresponds to 0.2 ml. For this procedure a volume of 0.1 ml will be used (half of the maximum volume). 1 ml of each stock solution (cannabinol, CBN 1-5 and pure olive oil, POO) was dispensed into Falcon vials. Prior to the administration, the weight of each mouse was recorded and the appropriate amount of cannabinol solution was determined. For the POO group always 0.1 ml was dispensed in 6 an eppendorf vessel, for the other experimental groups transfer the amounts of CBN 1-5 and POO according to table 2 were used in an eppendorf vial. The amounts to be administered were adjusted depending on mouse group and individual weights.
Monitor the animal for potential complications: Esophagitis (inflammation of the oesophagus), perforation of the oesophagus or trachea, damage to the cardiac sphincter (upper stomach sphincter) insertion of needle and solution into the lungs, lung perforation, damage to the oral cavity, aspiration of solution into the lungs from regurgitation, traumatic injuries related to improper restrain.
The mean weights (and standard deviations) of spleen, liver and kidney from all mice groups at sacrifice are monitored.

CCCCCc1cc(O)c2c(c1)OC(C)(C)c1ccc(C)cc1-2 [Cannabinol]
number of mice sleeping 30 minutes after administration [1]: increased significantly
aggressive behaviour and clinical alterations (tremors) ([2]; 0.01-0.5 mg/Kg daily by oral gavage, male C57BL6 mice): No presence of aggressive behaviour, neither evident clinical alterations
liver and kidney weights at sacrifice ([2]; among experimental groups, 0.01-0.5 mg/Kg oral): No significant changes
body weight change ([2]; within experimental groups with time or among groups at fixed time, 0.01-0.5 mg/Kg oral): No significant changes
